PubChem BioAssay AID504393 (Southern Research Specialized Biocontainment Screening …, 2011)
Active and inactive are the calls of the source. No rule for the calls is given here.

tested on: MAGI cells cytotoxicity, % cell control, 2% serum; assay: host cell viability for CXCR4-tropic HIV-1 MAGI assay – MAGI cells, 2% serum, TC50, cytotoxicity control for HIV-1 antiviral lead project, dose response (AID 504393)

Row | SMILES | TC50
1 | CCOc1ccc(-n2cccc2/C=C2/C(=N)N3C(=NC2=O)SN=C3S(C)(=O)=O)cc1 | 42.6 µM
2 | Cc1c2c(=O)n(-c3nc4ccccc4s3)nc-2cc(O)n1CCC(C)C | 65.1 µM
3 | COc1ccc(-n2cccc2/C=C2/C(=N)N3C(=NC2=O)SN=C3S(C)(=O)=O)cc1Cl | 42.4 µM
4 | COc1cccc(C2C(C(=O)Nc3ccccc3)=C(C)N=c3sc(=Cc4ccc(OCC(=O)O)cc4)c(=O)n32)c1 (centres undefined) | > 100 µM (inactive)
5 | Cc1c2c(=O)n(-c3nc4ccccc4s3)nc-2cc(O)n1Cc1ccc(F)cc1 | 70.4 µM
6 | Cc1ccc(-c2ccc(/C=C3\SC(=S)N(CCCC(=O)O)C3=O)o2)cc1 | > 100 µM (inactive)
7 | COc1ccc(-c2ccc(/C=C3\SC(=S)N(CCCC(=O)O)C3=O)o2)cc1 | > 100 µM (inactive)
8 | CCc1ccc(-c2ccc(/C=C3\SC(=S)N(CCCC(=O)O)C3=O)o2)cc1 | > 100 µM (inactive)
9 | CCc1ccc(-n2cccc2/C=C2/C(=N)N3C(=NC2=O)SN=C3S(C)(=O)=O)cc1 | 49.7 µM
10 | Cc1c2c(=O)n(-c3nc4ccccc4s3)nc-2cc(O)n1Cc1ccncc1 | 85.9 µM
11 | Cc1ccc(-n2cccc2/C=C2/C(=N)N3C(=NC2=O)SN=C3S(C)(=O)=O)cc1C | 48.9 µM
12 | CS(=O)(=O)C1=NSC2=NC(=O)/C(=C\c3cccn3-c3cccc(Cl)c3)C(=N)N21 | > 100 µM (inactive)
13 | O=C(O)c1ccc([C@@H]2Nc3ccc(S(=O)(=O)Nc4cccc5ccccc45)cc3[C@@H]3C=CC[C@@H]32)cc1 | 54.8 µM
14 | Cc1c2c(=O)n(-c3nc4ccccc4s3)nc-2cc(O)n1CCc1ccc(O)cc1 | 37.6 µM
15 | COc1ccc(Cn2c(O)cc3nn(-c4nc5ccccc5s4)c(=O)c-3c2C)cc1 | 56.3 µM
16 | CCOC(=O)C1=C(c2ccccc2)N=c2s/c(=C\c3ccc(OCC(=O)O)cc3)c(=O)n2C1c1cccc(OC)c1 (centres undefined) | 57.5 µM
17 | CS(=O)(=O)C1=NSC2=NC(=O)/C(=C\c3cccn3-c3cc(Cl)cc(Cl)c3)C(=N)N21 | 36.5 µM
18 | CCOC(=O)C1=C(C)N=c2s/c(=C\c3ccc(OCC(=O)O)cc3)c(=O)n2C1c1ccc(Cl)cc1 (centres undefined) | > 100 µM (inactive)
19 | CS(=O)(=O)C1=NSC2=NC(=O)/C(=C\c3cccn3-c3ccc(F)cc3)C(=N)N21 | > 100 µM (inactive)
20 | CCOC(=O)C1=C(C)N=c2sc(=Cc3ccc(OCC(=O)O)cc3)c(=O)n2C1c1ccccc1OC (centres undefined) | > 100 µM (inactive)

Row | SMILES | TC50
21 | CS(=O)(=O)C1=NSC2=NC(=O)/C(=C\c3cccn3-c3ccc(Cl)c(Cl)c3)C(=N)N21 | 56.7 µM
22 | CS(=O)(=O)C1=NSC2=NC(=O)/C(=C\c3cccn3-c3cccc(C(F)(F)F)c3)C(=N)N21 | 79.5 µM
23 | O=C(O)c1ccc(C[n+]2c(-c3ccccc3)csc2Nc2ccccc2)cc1 | 80.6 µM
24 | CC1=C(C(=O)OC(C)C)C(c2ccc(Cl)cc2)n2c(s/c(=C\c3ccc(OCC(=O)O)cc3)c2=O)=N1 (centres undefined) | > 100 µM (inactive)
25 | O=C(O)CCCN1C(=O)/C(=C/c2ccc(-c3ccc(Cl)c(Cl)c3)o2)SC1=S | 11.7 µM
26 | O=C(O)CCCN1C(=O)/C(=C\c2ccc(-c3cccc(Cl)c3)o2)SC1=S | 40 µM
27 | CCOC(=O)C1=C(C)N=c2sc(=Cc3ccc(OCC(=O)O)cc3)c(=O)n2C1c1ccc(OC)cc1OC (centres undefined) | > 100 µM (inactive)
28 | O=C(O)CCC(C(=O)O)N1C(=O)/C(=C\c2ccco2)SC1=S (centres undefined) | > 100 µM (inactive)
29 | COc1ccccc1Cn1c(O)cc2nn(-c3nc4ccccc4s3)c(=O)c-2c1C | 45.7 µM
30 | CCOC(=O)C1=C(C)N=c2sc(=Cc3ccc(OCC(=O)O)cc3)c(=O)n2C1c1cc(OC)c(OC)c(OC)c1 (centres undefined) | > 100 µM (inactive)
31 | COc1ccc(CCn2c(O)cc3nn(-c4nc5ccccc5s4)c(=O)c-3c2C)cc1 | > 100 µM (inactive)
32 | Cc1c2c(=O)n(-c3nc4ccccc4s3)nc-2cc(O)n1Cc1ccccc1Cl | 82 µM
33 | O=C(O)CCCN1C(=O)/C(=C/c2ccc(-c3cccc(C(F)(F)F)c3)o2)SC1=S | > 100 µM (inactive)
34 | COc1cccc(-n2cccc2/C=C2/C(=N)N3C(=NC2=O)SN=C3S(C)(=O)=O)c1 | 57.6 µM
35 | Cc1c2c(=O)n(-c3nc4ccccc4s3)nc-2cc(O)n1Cc1cccnc1 | 99.2 µM
36 | Nc1sc2ccccc2[n+]1Cc1ccc(C(=O)O)cc1 | > 100 µM (inactive)
37 | CCOC(=O)C1=C(C)N=c2sc(=Cc3ccc(OCC(=O)O)cc3)c(=O)n2C1c1ccccc1 (centres undefined) | > 100 µM (inactive)
38 | CCOC(=O)C1=C(C)N=c2s/c(=C\c3ccc(OCC(=O)O)cc3)c(=O)n2C1c1ccc(OC)c(OCC)c1 (centres undefined) | > 100 µM (inactive)
39 | O=C(O)CCCN1C(=O)/C(=C/c2cc3ccccc3o2)SC1=S | 83.6 µM
